Consider 32 compounds from US20220169632A1, “METHODS AND MATERIALS FOR INCREASING OR MAINTAINING NICOTINAMIDE MONONUCLEOTIDE ADENYLYL TRANSFERASE-2 (NMNAT2) POLYPEPTIDE LEVELS” (University of Pittsburgh - Of the Commonwealth System of …, priority 2019, published 2022).

The test system of the assay is NMNAT2. Kind of assay: NMNAT2-Hibit nano-luciferase activity in stably transfected U87MG cells, various concentrations, 24 hours. The following applies: U87MG cells stably transfected with NMNAT2-Hibit luc plasmid. It counts as cell-based. The method, then:
Selected compounds were tested in vitro. U87MG cells were stably transfected with NMNAT2-Hibit luc plasmid. Cells were treated with a test compound at various concentrations for 24 hours. Cells were then collected and assayed for nano-luciferase activity.
As for `Cc1ccc(C)c(Cn2cc([C@H]3C[C@@H]3C(=O)NCc3cccc(F)c3)c3ccccc32)c1` (racemic) [BC20346], the “E: compound efficacy for NMNAT2 activation (concentration giving >25% increase in NMNAT2 luciferase activity)” value is “+ (“+” >25% increase in NMNAT2 luciferase activity at >25 μM.)”.

On to `Cc1ccc(Cn2cc(C3CCNC(=O)C3)c3ccccc32)cc1` (centres unmarked) [BC20192], for which the “E: compound efficacy for NMNAT2 activation (concentration giving >25% increase in NMNAT2 luciferase activity)” value is “++ (“++” >25% increase in NMNAT2 luciferase activity at >1 μM ≤25 μM.)”.

As to `O=C(Cn1c2c(c3ccccc31)CC(C(=O)NCc1ccco1)CC2)NCc1cccnc1` (centres unmarked) [BC20292], the “E: compound efficacy for NMNAT2 activation (concentration giving >25% increase in NMNAT2 luciferase activity)” value is given as “++ (“++” >25% increase in NMNAT2 luciferase activity at >1 μM ≤25 μM.)”.

In the case of `Cc1cccc(CN2CCC(c3cn(Cc4cccc(F)c4)c4ccccc34)CC2=O)c1` (centres unmarked) [BC20321], the “E: compound efficacy for NMNAT2 activation (concentration giving >25% increase in NMNAT2 luciferase activity)” value is “+ (“+” >25% increase in NMNAT2 luciferase activity at >25 μM.)”.

For the compound `O=C(Cn1c2c(c3ccccc31)CN(C(=O)NCc1ccco1)CC2)NCc1ccco1` [BC20327], the “E: compound efficacy for NMNAT2 activation (concentration giving >25% increase in NMNAT2 luciferase activity)” value is given as “+ (“+” >25% increase in NMNAT2 luciferase activity at >25 μM.)”.

In the case of `Cc1ccc(C)c(Cn2c(C(F)F)c(CCC(=O)NC(C)Cc3ccco3)c3ccccc32)c1` (centres unmarked) [BC20401], the “E: compound efficacy for NMNAT2 activation (concentration giving >25% increase in NMNAT2 luciferase activity)” value is listed as “++ (“++” >25% increase in NMNAT2 luciferase activity at >1 μM ≤25 μM.)”.

Take `O=C1c2cccc3c2c(cn3Cc2cccc(F)c2)CCN1Cc1ccncc1` [BC20277]: the “E: compound efficacy for NMNAT2 activation (concentration giving >25% increase in NMNAT2 luciferase activity)” value is recorded as “+ (“+” >25% increase in NMNAT2 luciferase activity at >25 μM.)”.

Consider `COc1ccccc1CNC(=O)c1ccc2c(c1)c(C)c(C)n2Cc1ccccc1F` [BC20106], for which the “E: compound efficacy for NMNAT2 activation (concentration giving >25% increase in NMNAT2 luciferase activity)” value is “++ (“++” >25% increase in NMNAT2 luciferase activity at >1 μM ≤25 μM.)”.

In the case of `COc1cccc(CNC(=O)[C@H]2C[C@@H]2c2cn(Cc3ccc(C)cc3)c3ccccc23)c1` (racemic) [BC20299], the “E: compound efficacy for NMNAT2 activation (concentration giving >25% increase in NMNAT2 luciferase activity)” value was “+ (“+” >25% increase in NMNAT2 luciferase activity at >25 μM.)”.

For `COc1cccc(CNC(=O)c2ccc3c(c2)c(C)c(C)n3Cc2cccc(F)c2)c1` [BC20116], the “E: compound efficacy for NMNAT2 activation (concentration giving >25% increase in NMNAT2 luciferase activity)” value was “++ (“++” >25% increase in NMNAT2 luciferase activity at >1 μM ≤25 μM.)”.

`O=C1c2cccc3c2c(cn3Cc2cccc(F)c2)CCN1Cc1cccc(F)c1` [BC20275]: the “E: compound efficacy for NMNAT2 activation (concentration giving >25% increase in NMNAT2 luciferase activity)” value is on record as “+ (“+” >25% increase in NMNAT2 luciferase activity at >25 μM.)”.

For the compound `COc1cccc(CNC(=O)N2CCc3c(c4ccccc4n3Cc3cccc(F)c3)C2)c1` [BC20310], the “E: compound efficacy for NMNAT2 activation (concentration giving >25% increase in NMNAT2 luciferase activity)” value is recorded as “+ (“+” >25% increase in NMNAT2 luciferase activity at >25 μM.)”.

Take `Cc1c(C)n(Cc2ccccc2F)c2ccc(C(=O)NC(C)Cc3ccco3)cc12` (centres unmarked) [BC20244]: the “E: compound efficacy for NMNAT2 activation (concentration giving >25% increase in NMNAT2 luciferase activity)” value is on record as “+ (“+” >25% increase in NMNAT2 luciferase activity at >25 μM.)”.

For `O=C(Cn1c2c(c3ccccc31)CN(C(=O)NCCc1ccccc1)CC2)NCc1ccco1` [BC20329], the “E: compound efficacy for NMNAT2 activation (concentration giving >25% increase in NMNAT2 luciferase activity)” value is “+ (“+” >25% increase in NMNAT2 luciferase activity at >25 μM.)”.

With `Cc1ccc(C)c(Cn2cc([C@H]3C[C@@H]3C(=O)NC(C)Cc3ccco3)c3ccccc32)c1` (mixture of isomers) [BC20363], the “E: compound efficacy for NMNAT2 activation (concentration giving >25% increase in NMNAT2 luciferase activity)” value is listed as “++ (“++” >25% increase in NMNAT2 luciferase activity at >1 μM ≤25 μM.)”.

`COc1cccc(CNC(=O)[C@H]2C[C@@H]2c2c(C)n(Cc3cc(C)ccc3C)c3ccccc23)c1` (racemic) [BC20325]: the “E: compound efficacy for NMNAT2 activation (concentration giving >25% increase in NMNAT2 luciferase activity)” value is reported as “+ (“+” >25% increase in NMNAT2 luciferase activity at >25 μM.)”.

For the compound `Cc1cccc(Cn2cc(CCCC(=O)Nc3cccc(C)c3C)c3ccccc32)c1` [BC20175], the “E: compound efficacy for NMNAT2 activation (concentration giving >25% increase in NMNAT2 luciferase activity)” value is listed as “++ (“++” >25% increase in NMNAT2 luciferase activity at >1 μM ≤25 μM.)”.

For the compound `COc1cccc(CNC(=O)C2CCc3c(c4ccccc4n3Cc3cccc(F)c3)C2)c1` (centres unmarked) [BC20226], the “E: compound efficacy for NMNAT2 activation (concentration giving >25% increase in NMNAT2 luciferase activity)” value is “+ (“+” >25% increase in NMNAT2 luciferase activity at >25 μM.)”.

On to `Cc1c(C)n(Cc2cccc(F)c2)c2ccc(C(=O)N3CCN(C(=O)c4ccco4)CC3)cc12` [BC20117], for which the “E: compound efficacy for NMNAT2 activation (concentration giving >25% increase in NMNAT2 luciferase activity)” value is “++ (“++” >25% increase in NMNAT2 luciferase activity at >1 μM ≤25 μM.)”.

For the compound `Cc1c(C)n(Cc2cccc(F)c2)c2ccc(C(=O)NCc3ccncc3)cc12` [BC20119], the “E: compound efficacy for NMNAT2 activation (concentration giving >25% increase in NMNAT2 luciferase activity)” value is reported as “+++ (“+++” >25% increase in NMNAT2 luciferase activity at ≤1 μM.)”.

In the case of `O=C(Cn1c2c(c3ccccc31)CC(C(=O)NCc1ccco1)CC2)NCCc1ccccc1` (centres unmarked) [BC20291], the “E: compound efficacy for NMNAT2 activation (concentration giving >25% increase in NMNAT2 luciferase activity)” value was “++ (“++” >25% increase in NMNAT2 luciferase activity at >1 μM ≤25 μM.)”.

On to `O=C1CC(c2cn(Cc3cccc(F)c3)c3ccccc23)CCN1Cc1ccncc1` (centres unmarked) [BC20322], for which the “E: compound efficacy for NMNAT2 activation (concentration giving >25% increase in NMNAT2 luciferase activity)” value is recorded as “++ (“++” >25% increase in NMNAT2 luciferase activity at >1 μM ≤25 μM.)”.

Regarding `COc1cccc(CNC(=O)Cn2c3c(c4ccccc42)CC(C(=O)NCc2ccco2)CC3)c1` (centres unmarked) [BC20290], the “E: compound efficacy for NMNAT2 activation (concentration giving >25% increase in NMNAT2 luciferase activity)” value is given as “+ (“+” >25% increase in NMNAT2 luciferase activity at >25 μM.)”.

Turning to `Cc1ccccc1Cn1cc(CCCC(=O)N(CCCN2CCOCC2)Cc2ccco2)c2ccccc21` [BC20157], the “E: compound efficacy for NMNAT2 activation (concentration giving >25% increase in NMNAT2 luciferase activity)” value was “+++ (“+++” >25% increase in NMNAT2 luciferase activity at ≤1 μM.)”.

Take `Cc1ccccc1Cn1cc(CCCC(=O)N2CCN(C(=O)c3ccco3)CC2)c2ccccc21` [BC20158]: the “E: compound efficacy for NMNAT2 activation (concentration giving >25% increase in NMNAT2 luciferase activity)” value is “++ (“++” >25% increase in NMNAT2 luciferase activity at >1 μM ≤25 μM.)”.

Regarding `O=C(NCc1cccc(F)c1)C1CCc2c(c3ccccc3n2Cc2ccncc2)C1` (centres unmarked) [BC20316], the “E: compound efficacy for NMNAT2 activation (concentration giving >25% increase in NMNAT2 luciferase activity)” value was “+ (“+” >25% increase in NMNAT2 luciferase activity at >25 μM.)”.

Take `O=C(NCc1cccc(F)c1)C1CCc2c(c3ccccc3n2Cc2cccc(F)c2)C1` (centres unmarked) [BC20222]: the “E: compound efficacy for NMNAT2 activation (concentration giving >25% increase in NMNAT2 luciferase activity)” value is on record as “+ (“+” >25% increase in NMNAT2 luciferase activity at >25 μM.)”.

Take `O=C1CC(c2cn(Cc3cccc(F)c3)c3ccccc23)CCN1` (centres unmarked) [BC20339]: the “E: compound efficacy for NMNAT2 activation (concentration giving >25% increase in NMNAT2 luciferase activity)” value is “+ (“+” >25% increase in NMNAT2 luciferase activity at >25 μM.)”.

For `CCCCN(CC)Cc1ccc(CNC(=O)C2CCc3c(c4ccccc4n3Cc3cccc(F)c3)C2)o1` (centres unmarked) [BC20259], the “E: compound efficacy for NMNAT2 activation (concentration giving >25% increase in NMNAT2 luciferase activity)” value was “+++ (“+++” >25% increase in NMNAT2 luciferase activity at ≤1 μM.)”.

Regarding `Cc1ccc(C)c(Cn2c3c(c4ccccc42)CN(C(=O)Nc2cccc(C)c2C)CC3)c1` [BC20255], the “E: compound efficacy for NMNAT2 activation (concentration giving >25% increase in NMNAT2 luciferase activity)” value is reported as “+ (“+” >25% increase in NMNAT2 luciferase activity at >25 μM.)”.

In the case of `Cc1ccc(Cn2c3c(c4ccccc42)C(C(=O)NCCc2ccccc2)CCC3)cc1` (centres unmarked) [BC20388], the “E: compound efficacy for NMNAT2 activation (concentration giving >25% increase in NMNAT2 luciferase activity)” value is “+ (“+” >25% increase in NMNAT2 luciferase activity at >25 μM.)”.

On to `Cc1c(C)n(Cc2ccccc2F)c2ccc(C(=O)N3CCc4occc4C3)cc12` [BC20247], for which the “E: compound efficacy for NMNAT2 activation (concentration giving >25% increase in NMNAT2 luciferase activity)” value is reported as “+ (“+” >25% increase in NMNAT2 luciferase activity at >25 μM.)”.
